This passage reports biofilm inhibited, MIC and MFC results from patent US20100331409A1, “Use of Methyl Cinnamate in the Inhibition of Candida Albicans Biofilms” (Barak Biotechnology Co., Ltd., priority 2009, published 2010).

Molecules are shown by their SMILES.

Type in all cases: cell-based
In assay [1] the test system is biofilm of Candida albicans. As to the kind of experiment: Inhibition of biofilm of Candida albicans on polystyrene (XTT and crystal violet). The settings on record: concentration ranging from 0.015% to 0.125%; added 4 hours after adhesion, cultured at 37° C. to 48 hours; XTT and CV. As for the experimental part:
A single colony of Candida albicans was selected from YPD plate (1% (w/v) yeast extract, 2% (w/v) peptone, 2% (w/v) dextrose and 1.5% (w/v) agar), seeded in YPD liquid medium (1% (w/v) yeast extract, 2% (w/v) peptone and 2% (w/v) dextrose) and then cultured at 30° C. and 100 rpm for 16 hours. The YPD medium was washed out and the amounts of the Candida albicans cells were counted using Hematocyte Counter. The cells were diluted with RPMI 1640 medium (Gibco, Invitroge, Calif., U.S.A.) to 5×10^5 cells/ml. 200 μL of 5×10^5 cells/ml medium were added to 96-well plate and placed at 37° C. for 1 hour so that the cells could adhere to the bottom of the plate. The non-adhered cells were washed out with phosphate buffer. The material of the 96-well plate was polystyrene, which is a common material for medical device such as syringe. Subsequently, RPMI 1640 medium was added to the plate and cultured at 37° C. […] The numbers of cells in the biofilm were determined by a colorimetric assay using XTT [2,3-Bis(2-methoxy-4-nitro-5-sulfo-phenyl)-2H-tetrazolium-5-carboxanilide] (Sigma, Mo., U.S.A.) and their biomass was determined by crystal violet to find out the mature development of biofilm (Ramage G et al., Inhibition of Candida albicans Biofilm Formation by Farnesol, A Quorum-Sensing Molecule. Appl Environ Microbiol 2002, 68: 5459-5463). […]
On the technique in general: Tetrazolium assays rely on reduction of a dye to a coloured formazan, in cell work by metabolically active cells.

Assay [2] has as its system Candida albicans. The experiment in a line: MIC assay against Candida albicans. The settings on record: 1×10^5 CFU/ml, 96-well plates, 37° C. for 16 hours. As for the experimental part: (§1) A single colony of Candida albicans was selected from YPD plate, seeded in YPD liquid medium and then cultured at 30° C. and 100 rpm for 16 hours. The medium was diluted to 1×10^5 CFU/ml. The diluted medium was added to 96-well plates containing different concentrations of methyl cinnamate and essential oil of Zanthoxylum armatum (0.00625% to 1% for methyl cinnamate and 0.025% to 0.5% for essential oil) and cultured at 37° C. for 16 hours.

Assay [3] relates to Candida albicans. The experiment in a line: MFC assay against Candida albicans. The settings on record: 1×10^5 CFU/ml, 96-well plates, 37° C. for 16 hours. Here is the method:
as §1

Compound `COC(=O)/C=C/c1ccccc1` [methyl cinnamate] registered a biofilm inhibited in assay [1] of 10 to 60%. In the assay on Candida albicans [2], this compound came in with an MIC of 0.1%. Further, the MFC against Candida albicans [3] stood at 0.8%.
